From patent US20050222402A1, “Dna encoding rat bombesin receptor subtype-3 (brs-3) and uses thereof” (priority 2001, published 2005) come the findings set out here.

Changes are numbered by the printed parent chain. Non-standard residues stand in square brackets, D forms with d. Residues, ends and D or L forms follow the SMILES beside them. Nle = CCCC[C@H](N)C(=O)O; βAla = NCCC(=O)O

The target in experiment [1] is T1, rat BRS-3 (Rattus norvegicus, UniProt Q8K418).
T1 construct: utilized to PCR amplify full-length rat BRS-3 cDNA; expressed in transfected cells; host or cells: 293EBNA cells, pE3 expression vector
T1 sequence (Q8K418 1-399): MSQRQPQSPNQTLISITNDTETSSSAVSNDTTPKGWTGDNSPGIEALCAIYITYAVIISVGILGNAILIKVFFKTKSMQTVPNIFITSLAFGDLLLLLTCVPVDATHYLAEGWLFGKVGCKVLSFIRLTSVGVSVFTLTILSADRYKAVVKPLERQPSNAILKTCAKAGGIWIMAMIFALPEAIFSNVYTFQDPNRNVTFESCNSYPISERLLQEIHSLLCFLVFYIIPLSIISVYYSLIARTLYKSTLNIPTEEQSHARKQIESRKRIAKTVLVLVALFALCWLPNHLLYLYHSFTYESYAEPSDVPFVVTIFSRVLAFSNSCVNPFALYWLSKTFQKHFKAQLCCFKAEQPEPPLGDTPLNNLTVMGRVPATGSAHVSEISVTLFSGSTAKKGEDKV
As to the kind of experiment: Calcium mobilization assay (FLIPR), transfected 293EBNA cells. Format: cell-based. How it is done:
Wild type and mutant BRS-3 constructs were transfected by using lipofectamine reagents (Life Technologies, Rockville, Md.) into 293EBNA cells (Invitrogen, Carlsbad, Calif.) which support episomal replication of plasmid containing Epstein Bar virus OriP segment. Stable cell lines were obtained by selection with 250 ug/ml hygromycin. The cells were maintained as monolayers in Dulbecco's modified Eagle's medium (Life Technologies, Rockville, Md.) supplemented with 10% fetal bovine serum and incubated at 37° C. in a humidified 5% CO2 incubator.
The functional activity of rat BRS-3 was also studied by measuring the agonist-induced calcium mobilization response using a Fluorescence Imaging Plate Reader (Molecular Devices, Sunnyvale, Calif.). Transfected 293EBNA cells were plated onto poly-D-lysine coated 96-well plates with black wall and clear bottom (Becton Dickinson, Franklin Lakes, N.J.). After 16-48 hr culture, the cells were loaded with 4 uM Fluo-3-AM fluorescent calcium-indicator dye (Molecular Probes, Eugene, OR) in assay buffer (Hank's balanced salts solution, 10 mM HEPES, pH7.4, 0.1% bovine serum albumin, 2.5 mM probenecid).
The changes in intracellular calcium concentration, as indicated by Fluo-3 fluorescence, were immediately measured by FLIPR. Maximal changes in fluorescence over base line were used to determine agonist response.
The EC50 values were mean±S.E. calculated from dose-response curves of 3-5 repeated experiments using FLIPR assays.
Background: Calcium flux is commonly read through the fluorescence of an indicator in the cells.

A further experiment addresses T2, mouse BRS-3 (Mus musculus, UniProt O54798, S28P/V27A).
T2 construct: expressed in transfected cells; host or cells: same expression system as rat BRS-3 (pE3 / 293EBNA)
T2 sequence (O54798 1-399 V27A/S28P): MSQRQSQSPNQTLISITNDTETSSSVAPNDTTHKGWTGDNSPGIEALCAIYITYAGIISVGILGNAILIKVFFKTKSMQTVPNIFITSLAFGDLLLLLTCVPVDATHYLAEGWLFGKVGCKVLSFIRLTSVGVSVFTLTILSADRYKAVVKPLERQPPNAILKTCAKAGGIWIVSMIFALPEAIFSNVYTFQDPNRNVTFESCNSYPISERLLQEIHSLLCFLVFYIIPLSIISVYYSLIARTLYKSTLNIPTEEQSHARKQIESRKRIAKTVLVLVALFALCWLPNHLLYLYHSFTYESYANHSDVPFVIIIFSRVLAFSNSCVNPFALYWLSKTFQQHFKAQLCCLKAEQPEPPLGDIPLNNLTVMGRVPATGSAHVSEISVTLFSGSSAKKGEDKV
As to the kind of experiment: Calcium mobilization assay (FLIPR), same expression system. It is filed as cell-based. Particulars: data not shown.

Experiment [2] concerns the target T1, rat BRS-3. As to the kind of experiment: Radioligand binding assay with 125I-dYB. How it is done:
Peptide dYB (dY-Q-W-A-V-(beta-A)-H-F-Nle-amide) (SEQ ID NO:10) was made by Research Genetics (Huntsville, Ala.) and custom labeled by NEN Life Science (NEN, Boston, Mass.) with a ^125I on the dY phenyl ring. The specific activity of ^125I-dYB is 2200 ci/mmol. The 293EBNA cells expressing wild type or mutant BRS-3 grown in 150-mm^2 dishes were harvested in binding buffer (50 mM HEPES, pH 7.4, 5 mM MgCl2, 0.1% BSA) and disrupted with Dounce homogenization.
(§1) After removal of cell nuclei by a low speed centrifugation (1000×g) step, the cell membrane proteins were collected by centrifugation at 35,000×g for 20 minutes. The membrane protein concentration was determined by the Bradford method using BSA as standard.
For binding assays, ˜20 ug membrane proteins were incubated with 0.25 nM ^125I-dYB and various concentrations of competitors in 200 ul binding buffer. After a 2 hr incubation at room temperature, the binding reaction was terminated by filtering through a GF/c filter-mate and washing the filter with binding buffer using Packard 96-well Topcount Harvester. The amount of radioligand bound to the receptor was determined by measurement of the radioactivity on the filter through liquid scintillation counting. The non-specific binding was defined as the binding in the presence of 1 uM unlabeled dYB.

A further experiment addresses T3, RBB3-E3 (Rattus norvegicus, UniProt Q8K418, A302V/D306A/E299Q/E303D/P308H/S300T/V307M/V310I/V311F/Y298S).
T3 construct: expressed in transfected cells; host or cells: 293EBNA cells, pE3 expression vector
T3 sequence (Q8K418 1-399 Y298S/E299Q/S300T/A302V/E303D/D306A/V307M/P308H/V310I/V311F): T1 sequence (Q8K418 1-399) with Y298S, E299Q, S300T, A302V, E303D, D306A, V307M, P308H, V310I, V311F
As to the kind of experiment: Radioligand binding assay with 125I-dYB. Particulars: displacement of [125I]dYB by unlabeled dYB. Details: species or system rat/human. Here is the method: as §1
After a 2 hr incubation at room temperature, the binding reaction was terminated by filtering through a GF/c filter-mate and washing the filter with binding buffer using Packard 96-well Topcount Harvester. The amount of radioligand bound to the receptor was determined by measurement of the radioactivity on the filter through liquid scintillation counting. The non-specific binding was defined as the binding in the presence of 1 uM unlabeled dYB.
For orientation: In a radioligand displacement assay an active substance lowers the binding of a labelled ligand.

In the case of `CCCC[C@H](NC(=O)[C@H](Cc1ccccc1)NC(=O)[C@H](Cc1c[nH]cn1)NC(=O)CCNC(=O)[C@@H](NC(=O)[C@H](C)NC(=O)[C@H](Cc1c[nH]c2ccccc12)NC(=O)[C@H](CCC(N)=O)NC(=O)[C@H](N)Cc1ccc(O)cc1)C(C)C)C(N)=O` [dYB, [D-Tyr6-betaAla11-Phe13-Nle14] bombesin (6-14)] (H-[dY]QWAV[βAla]HF[Nle]-NH2), at rat BRS-3 [1], the “difference in dYB potency between human and rodent BRS-3” value is “approximately 1000 fold”; the “lower affinity of rat BRS-3 to dYB than human BRS-3” value was “approximately 1000 fold”. For the same compound, the EC50 (usually the concentration giving half of the maximal effect) at mouse BRS-3 is recorded as “in the uM range”. The “specific binding to rat BRS-3” value on rat BRS-3 [2] was “undetectable”.

Take `CCCC[C@H](NC(=O)[C@H](Cc1ccccc1)NC(=O)[C@H](Cc1cnc[nH]1)NC(=O)CCNC(=O)[C@@H](NC(=O)[C@H](C)NC(=O)[C@H](Cc1c[nH]c2ccccc12)NC(=O)[C@H](CCC(N)=O)NC(=O)[C@H](N)Cc1ccc(O)cc1)C(C)C)C(N)=O` [dYB, [D-Tyr6-betaAla11-Phe13-Nle14] bombesin (6-14)] (H-[dY]QWAV[βAla]HF[Nle]-NH2): the EC50 at rat BRS-3 [1] came out at 2200 ± 500 nM. Further, the Ki (commonly the dissociation constant of the complex between target and ligand, obtained from inhibition or displacement) on RBB3-E3 was 1.2 ± 0.7 nM.
